“Also recorded” adds a separate entry of the source.
Experiments:
[1] = tested on: ELA processing and secretion; experiment: Xenopus secretion assay; type: cell-based; conditions: Xenopus laevis embryos injected with human ELA mRNA; increasing amounts
Procedure: ZFNs were purchased from Sigma-Aldrich. 250 pg of mRNAs encoding the ZFN pair were injected into 1-cell stage embryos. ZFN binding sites within exon 1 are as follows: 5′_[…] 3′ (SEQ ID NO: 133) and 5′_[…]_3′ (SEQ ID NO: 134). Sequencing primers flanking the mutation sites are: forward 5′_[…]_3′ (SEQ ID NO: 135), reverse 5′[…]_3′ (SEQ ID NO: 136). For ela overexpression, 200 pg of SP6-transcribed zebrafish ela capped mRNA (Applied Biosystems) was injected into 1-cell stage zebrafish embryos. Translation blocking MOs used for aplnra and aplnrb have been described previously (Scott et al., 2007; Zeng et al., 2007) and were purchased from Gene tools (Oregon, USA). Embryos were injected at 1-cell stage with a combination of 1 ng of aplnra MO and 0.5 ng of aplnrb MO (Zeng et al., 2007). Information on probes used for q-PCR and WISH can be found in Tables E1 and E2. Zebrafish embryos at 100% epiboly were dechorionated and processed for western blotting as previously described (Link et al., 2006). For the Xenopus secretion assay, 16 ng of SP6-transcribed human ELA capped mRNA (Applied Biosystems) was injected into each cell of 4-cell stage embryos. At stage 8, embryos were dechorionated and dissociated in CMFM medium with 5 mM EDTA. […]

[2] = tested on: hESCs; experiment: hESC growth assays (cell counts, colony size, xCELLigence real time cell index); type: cell-based, human; conditions: for growth of knockdown hESCs (real-time cell index, xCELLigence): knockdown hESCs versus control hESCs
Procedure: Feeder-free hESCs were cultured in clumps in mTSER1 (Stem Cell Technologies) on Matrigel (BD 354277).
hESCs were dissociated into single cells using Accutase (Stem Cell Technologies) and plated in the presence of 10 μM Y-27632 (ROCK inhibitor) for 12 hours (Watanabe et al., 2007).
For xCELLigence real time growth assays, 4000 cells were plated per well of an E-plate (ACEA Biosciences) with media changes every 48 hours.
(§1) Recombinant ELA was added at 2.5 uM (or 10 μg/ml). Cell cycle studies were performed with Click-iT EDU staining kit (Invitrogen) and by performing a double thymidine block (2.5 mM thymidine; 16 hour block, 8 hour release, 16 hour block) followed by DAPI staining for DNA content at the indicated times following release.

[3] = tested on: APLNR; experiment: APLNR knockdown (qPCR, flow cytometry); conditions: FACs
Procedure: (§2) HES3 human embryonic stem cells were transduced with 2TU of lentiviruses and selected with 2 ug/ml puromycin for 2 weeks on feeder free culture system.
To obtain hESC-derived cells that express APLNR, we adopted a protocol for cardiac differentiation, which was stopped at Day 3 when APLNR expression peaks (Lian et al., 2013). We refer to this intermediary cell type as Day 3-differentiated mesoendoderm. Briefly, Shef4 and HES3 hESCs were dissociated with Accutase, and 0.14 million cells were plated into each well of a Matrigel-coated 24 well plate in the presence of 5 μM Y-27632 in mTSER1. The media was changed daily for 4 days with mTSER1 until the cells became 90% confluent. On Day 0, mTSER1 was then replaced with differentiation media [RPMI 1640, B-27 supplement with no insulin (Invitrogen)] with 9 μM of GSK3β inhibitor CHIR99201 (BioVision) for 24 hours. The cells were further grown for 2 days in RPMI+B27 without insulin until Day 3, when they were used for qPCR, flow cytometry and AP-binding assays.
Cells were resuspended to 2.5 million/ml and stained with 5 μg/ml of a APLNR (mAB856, R&D Systems) in PBS/5% FBS/1 mM EDTA for 30 minutes on ice, followed by wash in buffer, and stain with a mouse-IgG-Alexa Fluo488 (Molecular Probes) for 30 minutes on ice. Flow cytometry was carried out on LSRII (Becton Dickinson) and data analysis was performed with FlowJo (Treestar Inc.).

[4] = tested on: hESC-derived mesendoderm cells; experiment: AP-ELA binding to Day 3 mesoendoderm cells after shRNA-mediated depletion of APLNR
Procedure: as §2
Briefly, Shef4 and HES3 hESCs were dissociated with Accutase, and 0.14 million cells were plated into each well of a Matrigel-coated 24 well plate in the presence of 5 μM Y-27632 in mTSER1. The media was changed daily for 4 days with mTSER1 until the cells became 90% confluent. On Day 0, mTSER1 was then replaced with differentiation media [RPMI 1640, B-27 supplement with no insulin (Invitrogen)] with 9 μM of GSK3β inhibitor CHIR99201 (BioVision) for 24 hours. The cells were further grown for 2 days in RPMI+B27 without insulin until Day 3, when they were used for qPCR, flow cytometry and AP-binding assays.

[5] = tested on: undifferentiated hESCs; experiment: AP-ELA binding to undifferentiated hESCs after shRNA-mediated depletion of APLNR; conditions: Day 0 undifferentiated hESCs
Procedure: as §2

[6] = tested on: hESCs; experiment: Directed endoderm differentiation of hESCs (SOX17+ cell count); type: cell-based, human; conditions: immunofluorescence
Procedure: Shef4TetR5-shELA and Shef4TetR5-shβ2M cells were cultured in the presence (shELA and shβ2M respectively) or absence (Control) of 20 ng/ml doxycycline for 1 passage (4 days) and dissociated with Accutase. […] 24 hours later, the media was changed to Endo differentiation media 1 [RPMI 1640 (Gibco), 1X B-27 supplement (Invitrogen), 50 ng/ml of Activin A (R&D Systems), 25 ng/ml BMP4 (R&D Systems) and 50 ng/ml bFGF (Invitrogen)] for 3 days. On day 3, the media was changed to Endo differentiation media 2 (RPMI 1640, B27, 50 ng/ml Activin) for 2 more days of culture. Rescue experiments were performed by adding 2.5 uM of ELA peptide to Shef4TetR5-shELA concurrently with doxycycline up to day 3, when the ELA peptide is no longer necessary as judged by downregulation of endogenous ELA.
On day 5, cells were fixed with 4% paraformaldehyde and stained with α SOX17 (AF1924, R&D Systems) and DAPI. For each well, three different randomly selected fields were imaged and the number of nuclei staining positive of SOX17 and DAPI were counted using a custom macro in ImageJ. A minimum of two wells per condition was used for each experiment, and a minimum of two independent experiments were performed to generate the results.

[7] = tested on: hESCs; experiment: Teratoma analysis; type: in vivo; conditions: 10 million cells subcutaneously into SCID mice, day 60
Procedure: Shef4TetR5-shELA cells were cultured in the presence (shELA) or absence (Control) of 20 ng/ml doxycycline for 3 passages (4 days/passage). Cells were harvested with Accutase (Stemcell Technologies) and resuspended in 1 part Matrigel to 2 parts mTSER1. 10 million cells in 200 μl were injected subcutaneously into the right hind paunches of SCID mice. shELA-injected mice were fed doxycycline (20 μg/ml) for 3 weeks following injection. Mice were sacrificed 60 days post-injection for tumor analysis.

[8] = tested on: mesendodermal genes including GATA6, GATA4, FOXA2, EOMES and BRA; experiment: qPCR of mesendodermal markers in hESCs; type: cell-based, human
Procedure: After the indicated time periods, embryoid bodies were harvested and RNA extracted using RNeasy kit […]. qPCR reactions were carried out using either Universal FastStart SYBR Green Mastermix (Roche) or using the Universal Probe Library system (Roche) in tandem with Taqman Fast Mastermix (Invitrogen). Primer sequences can be found in Table E1.

[9] = tested on: hESCs; experiment: Cell cycle studies (EDU staining, double thymidine block); type: cell-based, human; conditions: release from double thymidine block
Procedure: as §1

[10] = tested on: pluripotency markers POU5F1, NANOG, SSEA3 and TRA-1-60; experiment: Pluripotency markers in ELA-depleted hESCs (immunofluorescence, qPCR); type: cell-based, human; conditions: prolonged ELA depletion in hESCs
Procedure: […]. Neomycin-resistant cells were clonally expanded and assayed for doxycycline (20 ng/ml)-inducible knockdown. Data from one representative clone (Shef4TetR5 shELA) are shown in this paper. Shef4TetR5 shβ2M were derived as previously described (Zafarana et al., 2009). Unless otherwise stated, ELA knockdown was induced on Day −4 with 20 ng/ml doxycycline to generate shELA cells.
Polyclonal antibodies were raised against a human N-terminal epitope (nh2-[…]) (SEQ ID NO: 53), C-terminal epitope ([…]-cooh) (SEQ ID NO: 52) or whole mature ELABELA peptide with an intramolecular cysteine bond (nh2-[…]-cooh) (SEQ ID NO: 2) and peptide-affinity purified from rabbit and goat sera. […] For western blotting and immunofluoresence assays, ELA antibodies were used at 1 μg/mL. All other antibodies are commercially available: TGN-46 (Serotec # AHP500GT); SSEA-3 (Stem Cell Tech #60061AD); TRA-1-60 (BD #560173); SOX17 (R&D # AF1924); POU5F1 (SCBT #sc-5279).

[11] = tested on: hESCs; experiment: Apoptosis assay (Annexin V, activated Caspase 3); type: cell-based, human
Procedure: Apoptosis assays were performed by plating control and Doxycycline-treated cells without Y-27632 onto matrigel for 6 hours, followed by harvesting and staining for Annexin V and activated Caspase 3.

Compound	ELA processing and secretion [1]	growth of knockdown hESCs (real-time cell index, xCELLigence) [2]	cell surface APLNR levels ([3]; Day 0 undifferentiated hESCs)	cell surface APLNR levels ([3]; Day 3 mesoendoderm cells)	levels of AP-ELA bound after APLNR depletion [4]	levels of AP-ELA bound after APLNR depletion [5]	directed endoderm differentiation (SOX17 expression) [6]	growth of hESCs by cell numbers ([2]; FIG. 3C, relative to untreated hESCs)	growth of hESCs relative to untreated cells ([2]; hESCs pulsed with peptide, documented by cell counts, colony size and real-time cell indices)	colony size ([2]; knockdown hESC colonies versus control)	teratoma / tumor formation [7]	expression of mesendodermal markers [8]	cell cycle progression [9]	pluripotency markers and colony morphology [10]	apoptosis ([11]; FACs, ANNEXIN V and activated CASPASE 3, single cells)	increase in the number of ANNEXIN V and activated CASPASE 3-positive cells ([11]; compared to control hESCs)
C[C@H]1CCC/C=C/[C@@H]2C[C@H](O)C[C@H]2[C@H](O)/C=C/C(=O)O1 [Brefeldin A]	able to block ELA processing and secretion; also recorded: blocks ELA processing															
shAPLNR: lentiviral shRNA hairpins against APLNR (constructs shAPLNR-1 and shAPLNR-2) (guide 1 ACACGTACCGGGACTATGA; guide 2 CCATCATGCTGACCTGTTA)		not compromised; also recorded: do not show impaired growth	No changes	significantly reduced cell surface APLNR levels	sufficient to significantly diminish the levels of AP-ELA; also recorded: significantly reduced AP-ELA binding	could not reduce binding of AP-ELA; also recorded: does not affect										
shELA: doxycycline-inducible shRNA, sequence GTGATTCTCGTGCCTCAAC targeting the 3′UTR of ELA, in Shef4TetR5 hESCs		markedly reduced growth rates; also recorded: significant growth impairment					impaired endoderm differentiation; also recorded: markedly impaired	reduced growth	reduced growth	less than half the size; also recorded: twice as small	did not form teratomas	reduced levels; also recorded: conversely downregulated	not due to the activation of G1/S checkpoint or lengthened G0 residence; also recorded: do not display overt changes in cell cycle progression	downregulation of pluripotency markers; also recorded: lose expression of pluripotency markers; also recorded: gradually differentiate and lose pluripotency markers	significantly higher rate; also recorded: rapid apoptosis	approximately 40%

Reference: patent US9309314B2, “Polypeptides, nucleic acids and uses thereof” (AGENCY FOR SCIENCE, TECHNOLOGY AND RESEARCH (A*STAR), priority 2013, dated 2016)
